The results in this text go back to patent US9006232B2, “Pyrimidone derivatives” (Mitsubishi Tanabe Pharma Corporation, priority 2009, dated 2015).

SMILES strings stand for the structures.

This assay deals with bovine cerebral TPK1 (Bos taurus, UniProt A0A059UE90). As to the kind of experiment: Inhibitory activity against P-GS1 phosphorylation by bovine cerebral TPK1. It counts as biochemical. The following applies: P-GS1 phosphorylation, 41.7 μM [γ-32P] ATP, 25° C., 2 hours; read-out: IC50. On the procedure: Inhibitory Activity of the Medicament of the Present Invention Against P-GS1 Phosphorylation by Bovine Cerebral TPK1 […] The phosphorylation was started by adding ATP, and the reaction was conducted at 25° C. for 2 hours, and then stopped by adding 21% perchloric acid on ice cooling. The reaction mixture was centrifuged at 12,000 rpm for 5 minutes and adsorbed on P81 paper (Whatmann), and then the paper was washed four times with 75 mM phosphoric acid, three times with water and once with acetone. The paper was dried, and the residual radioactivity was measured using a liquid scintillation counter.
bovine cerebral TPK1, sequence (A0A059UE90 1-419): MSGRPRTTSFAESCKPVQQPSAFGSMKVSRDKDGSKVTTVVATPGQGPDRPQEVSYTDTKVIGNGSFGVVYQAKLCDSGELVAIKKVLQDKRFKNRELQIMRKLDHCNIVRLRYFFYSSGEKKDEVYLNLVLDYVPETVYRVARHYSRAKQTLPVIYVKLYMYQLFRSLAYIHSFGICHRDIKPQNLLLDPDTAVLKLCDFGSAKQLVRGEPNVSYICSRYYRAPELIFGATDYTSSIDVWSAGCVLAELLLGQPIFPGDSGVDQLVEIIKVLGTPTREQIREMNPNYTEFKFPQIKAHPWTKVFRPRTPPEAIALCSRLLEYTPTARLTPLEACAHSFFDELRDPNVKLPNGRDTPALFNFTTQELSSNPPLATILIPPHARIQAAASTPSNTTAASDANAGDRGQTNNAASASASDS
Regarding `Cn1c(OC2CCN(c3ccc(CN4CCCCC4)cc3)C2)nc(-c2ccncn2)cc1=O` (centres unmarked) [1.231, 1-Methyl-2-[1-(4-piperidin-1-ylmethyl-phenyl)pyrrolidin-3-yloxy]-1H-[4,4′]bipyrimidinyl-6-one], the IC50 is 12.8 nM. As for `Cn1c(OCC2CCN(c3ccc(CN4CCCCC4)cc3)CC2)nc(-c2ccncc2)cc1=O` [1.232, 3-Methyl-2-[1-(4-piperidin-1-ylmethyl-phenyl)piperidin-4-ylmethoxy]-6-pyridin-4-yl-3H-pyrimidin-4-one], the figure is 162 nM; as for `Cn1c(OCC2CCN(c3ccc(CN4CCCCC4)cc3)CC2)nc(-c2ccncn2)cc1=O` [1.233, 1-Methyl-2-[1-(4-piperidin-1-ylmethyl-phenyl)piperidin-4-ylmethoxy]-1H-[4,4′] bipyrimidinyl-6-one], 41.6 nM; as for `Cn1c(OCC2CCN(c3ccc(CN4CCCCC4)cc3)CC2)nc(-c2ccncc2F)cc1=O` [1.234, 6-(3-Fluoro-pyridin-4-yl)-3-methyl-2-[1-(4-piperidin-1-ylmethyl-phenyl)piperidin-4-ylmethoxy]-3H-pyrimidin-4-one], 15.6 nM. Next, `CN1CCN(Cc2ccccc2N2CCC(Oc3nc(-c4ccncn4)cc(=O)n3C)CC2)CC1` [1.302, 1-Methyl-2-{1-[2-(4-methyl-piperazin-1-ylmethyl)phenyl]piperidin-4-yloxy}-1H-[4,4′]bipyrimidinyl-6-one]: 14.9 nM; `Cn1c(OC2CCN(c3ccccc3CN3CCCCC3)CC2)nc(-c2ccncn2)cc1=O` [1.303, 1-Methyl-2-[1-(2-piperidin-1-ylmethyl-phenyl)piperidin-4-yloxy]-1H-[4,4′]bipyrimidinyl-6-one]: 51.2 nM. On to `Cn1c(OC2CCN(c3ccccc3CN3Cc4ccccc4C3)CC2)nc(-c2ccncn2)cc1=O` [1.304, 2-{1-[2-(1,3-Dihydro-isoindol-2-ylmethyl)phenyl]piperidin-4-yloxy}-1-methyl-1H-[4,4′] bipyrimidinyl-6-one], for which the IC50 was 25.2 nM. Next, `CN(C)Cc1ccccc1N1CCC(Oc2nc(-c3ccncn3)cc(=O)n2C)CC1` [1.305, 2-[1-(2-Dimethylaminomethyl-phenyl)piperidin-4-yloxy]-1-methyl-1H-[4,4′]bipyrimidinyl-6-one]: 58.6 nM; `CN1CCC(CCN2CCC(Oc3nc(-c4ccncn4)cc(=O)n3C)CC2)CC1` [1.503, 1-Methyl-2-{1-[2-(1-methyl-piperidin-4-yl)ethyl]piperidin-4-yloxy)-1H-[4,4′]bipyrimidinyl-6-one]: 150 nM. Next, `Cn1c(OC2CCN(Cc3ccccc3)CC2)nc(-c2ccncn2)cc1=O` [1.504, 2-(1-Benzyl-piperidin-4-yloxy)-1-methyl-1H-[4,4′]bipyrimidinyl-6-one]: 955 nM; `CN1CCC(N2CCC(Oc3nc(-c4ccncn4)cc(=O)n3C)CC2)CC1` [1.505, 1-Methyl-2-(1′-methyl-[1,4′]bipiperidinyl-4-yloxy)-1H-[4,4′] bipyrimidinyl-6-one]: 394 nM. As for `Cn1c(OC2CCCCC2)nc(-c2ccncn2)cc1=O` [1.802, 2-Cyclohexyloxy-1-methyl-1H-[4,4′]bipyrimidinyl-6-one], the figure is 22.6 nM; as for `CCC1CCCCC1Oc1nc(-c2ccncn2)cc(=O)n1C` (centres unmarked) [1.803, 2-(2-Ethyl-cyclohexyloxy)-1-methyl-1H-[4,4′]bipyrimidinyl-6-one], 948 nM; as for `Cn1c(OC2CCCC2)nc(-c2ccncn2)cc1=O` [1.804, 2-Cyclopentyloxy-1-methyl-1H-[4,4′]bipyrimidinyl-6-one], 100 nM.

`Cn1c(OCCOc2ccccc2)nc(-c2ccncc2)cc1=O` [1.805, 3-Methyl-2-(2-phenoxy-ethoxy)-6-pyridin-4-yl-3H-pyrimidin-4-one]: the IC50 worked out at 370 nM. As to `Cn1c(OCCSc2ccccc2)nc(-c2ccncc2)cc1=O` [1.806, 3-Methyl-2-(2-phenylsulfanyl-ethoxy)-6-pyridin-4-yl-3H-pyrimidin-4-one], the IC50 amounted to 55 nM.

Regarding `Cn1c(OCCNc2ccccc2)nc(-c2ccncc2)cc1=O` [1.807, 3-Methyl-2-(2-phenylamino-ethoxy)-6-pyridin-4-yl-3H-pyrimidin-4-one], the IC50 turned out to be 99 nM. As for `CCN(CCOc1nc(-c2ccncc2F)cc(=O)n1C)c1cccc(C)c1` [1.808, 2-[2-(Ethyl-m-tolyl-amino)-ethoxy]-6-(3-fluoro-pyridin-4-yl)-3-methyl-3H-pyrimidin-4-one], the figure is 67 nM; as for `CCN(CCOc1nc(-c2ccncn2)cc(=O)n1C)c1cccc(C)c1` [1.809, 2-[2-(Ethyl-m-tolyl-amino)-ethoxy]-1-methyl-1H-[4,4′] bipyrimidinyl-6-one], 431 nM. As for `Cn1c(OCCCc2cccnc2)nc(-c2ccncn2)cc1=O` [1.810, 1-Methyl-2-(3-pyridin-3-yl-propoxy)-1H-[4,4′]bipyrimidinyl-6-one], the IC50 was 201 nM. In the case of `Cn1c(OCCc2ccccc2)nc(-c2ccncc2)cc1=O` [2.002, 3-Methyl-2-phenethyloxy-6-pyridin-4-yl-3H-pyrimidin-4-one], the IC50 was 200 nM.

For the compound `CCCCCCOc1nc(-c2ccncc2)cc(=O)n1C` [2.003, 2-Hexyloxy-3-methyl-6-pyridin-4-yl-3H-pyrimidin-4-one], the IC50 is 260 nM.

`Cn1c(OC[C@H]2CCCN2c2ccc(F)cc2)nc(-c2ccncn2)cc1=O` [2.202, 2-[(2R)-1-(4-Fluoro-phenyl)pyrrolidin-2-ylmethoxy]-1-methyl-1H-[4,4′]bipyrimidinyl-6-one]: the IC50 was determined as 158 nM. Next, `Cn1c(OC[C@H]2CCCN2c2ccc(F)cc2)nc(-c2ccncc2F)cc1=O` [2.203, 2-[(2R)-1-(4-Fluoro-phenyl)pyrrolidin-2-ylmethoxy]-6-(3-fluoro-pyridin-4-yl)-3-methyl-3H-pyrimidin-4-one]: 43.1 nM; `Cn1c(OC[C@@H]2CCCN2c2ccc(F)cc2)nc(-c2ccncn2)cc1=O` [2.204, 2-[(2S)-1-(4-Fluoro-phenyl)pyrrolidin-2-ylmethoxy]-1-methyl-1H-[4,4′]bipyrimidinyl-6-one]: 37.6 nM; `Cn1c(OC[C@@H]2CCCN2c2ccc(F)cc2)nc(-c2ccncc2F)cc1=O` [2.205, 2-[(2S)-1-(4-Fluoro-phenyl)pyrrolidin-2-ylmethoxy]-6-(3-fluoro-pyridin-4-yl)-3-methyl-3H-pyrimidin-4-one]: 18.4 nM. As for `Cn1c(OC[C@H]2CCN(c3ccccc3)C2)nc(-c2ccncn2)cc1=O` [2.209, 1-Methyl-2-[(3S)-1-phenyl-pyrrolidin-3-ylmethoxy]-1H-[4,4′] bipyrimidinyl-6-one], the figure is 941 nM; as for `Cn1c(OC[C@H]2CCN(c3ccccc3)C2)nc(-c2ccncc2F)cc1=O` [2.210, 6-(3-Fluoro-pyridin-4-yl)-3-methyl-2-[(3S)-1-phenyl-pyrrolidin-3-ylmethoxy]-3H-pyrimidin-4-one], 134 nM. For the compound `Cn1c(OCCc2ccccc2)nc(-c2ccncn2)cc1=O` [2.302, 1-Methyl-2-phenethyloxy-1H-[4,4′]bipyrimidinyl-6-one], the IC50 was 160 nM. Next, `Cn1c(OC2CCCN(c3ccccc3)C2)nc(-c2ccncn2)cc1=O` (centres unmarked) [Compound No. 1.101, 1-Methyl-2-(1-phenyl-piperidin-3-yloxy)-1H-[4,4′]bipyrimidinyl-6-one]: 9.4 nM; `COC(=O)N1CCCC(Oc2nc(-c3ccncn3)cc(=O)n2C)C1` (centres unmarked) [Compound No. 1.102, Methyl 3-(1-methyl-6-oxo-1,6-dihydro-[4,4′]bipyrimidinyl-2-yloxy) piperidine-1-carboxylate]: 28.2 nM; `Cn1c(OC2CCN(c3ccc(CN4CCN(C(=O)OC(C)(C)C)CC4)cc3)CC2)nc(-c2ccncn2)cc1=O` [Compound No. 1.201, tert-Butyl 4-{4-[4-(1-methyl-6-oxo-1,6-dihydro-[4,4′]bipyrimidinyl-2-yloxy)piperidin-1-yl]benzyl}piperazine-1-carboxylate]: 19.1 nM.

As for `Cn1c(OC2CCN(c3ccc(CN4CCNCC4)cc3)CC2)nc(-c2ccncn2)cc1=O` [Compound No. 1.202, 1-Methyl-2-[1-(4-piperazin-1-ylmethyl-phenyl)piperidin-4-yloxy]-1H-[4,4′]bipyrimidinyl-6-one], the IC50 turned out to be 13 nM. With `CN1CCN(Cc2ccc(N3CCC(Oc4nc(-c5ccncn5)cc(=O)n4C)CC3)cc2)CC1` [Compound No. 1.203, 1-Methyl-2-{1-[4-(4-methyl-piperazin-1-ylmethyl)phenyl]piperidin-4-yloxy}-1H-[4,4′] bipyrimidinyl-6-one], the IC50 amounted to 6.4 nM. Consider `Cn1c(OC2CCN(c3ccccc3CN3CCOCC3)CC2)nc(-c2ccncn2)cc1=O` [Compound No. 1.301, 1-Methyl-2-[1-(2-morpholin-4-ylmethyl-phenyl)piperidin-4-yloxy]-1H-[4,4′]bipyrimidinyl-6-one], for which the IC50 worked out at 61.1 nM.

Consider `Cn1c(OC2CCN(c3ccc4c(c3)COC(=O)N4)CC2)nc(-c2ccncn2)cc1=O` [Compound No. 1.401, 1-Methyl-2-{[1-(2-oxo-1,4-dhydro-2H-3,1-benzoxazin-6-yl)piperidin-4-yl]oxy}-1H-[4,4′] bipyrimidinyl-6-one], for which the IC50 was found to be 43.7 nM. Take `Cn1c(OC2CCN(CCC3CCNCC3)CC2)nc(-c2ccncn2)cc1=O` [Compound No. 1.501, 1-Methyl-2-[1-(2-piperidin-4-yl-ethyl)piperidin-4-yloxy]-1H-[4,4′] bipyrimidinyl-6-one]: the IC50 is 69 nM. Next, `Cn1c(OC2CCN(CCC3CCN(Cc4ccccc4)CC3)CC2)nc(-c2ccncn2)cc1=O` [Compound No. 1.502, 2-{1-[2-(1-Benzyl-piperidin-4-yl)ethyl]piperidin-4-yloxy}-1-methyl-1H-[4,4′]bipyrimidinyl-6-one]: 33.9 nM.
